Consider 10 compounds from patent publication US20240016766A1, “PHARMACEUTICAL COMPOSITION FOR TREATMENT OF INNER EAR DISORDERS THROUGH LOCAL ADMINISTRATION IN THE TYMPANIC AREA” (priority 2020, published 2024).

Data set [1] can be described thus: Further pharmacokinetics study, apricot oil formulations: concentration in perilymph (Example 3). The format is in vivo, male Long Evans rats. As for the experimental part: Apricot oil is present in the formulation as a solubilizing agent. α-(-)-bisabolol is used as diffusing agent. […] 2. […] 3. […] 4. […] Both ears were treated. […] 5. […]
Data set [2] in a line: Pharmacokinetics after single ear canal administration: concentration in perilymph (Examples 1 and 2). As for the experimental part: Pharmacokinetics study of different active agents has been conducted with ready-to-use formulations. The pharmacokinetic study consists of a single administration up to the eardrum on male Long Evans rats and assessment of the level of the active agent in middle ear area (tympanic bulla) and in the inner ear area (perilymph).
2. Route of administration: 20 μl of each formulation are delivered in the ear canal of one animal in one administration.
3. Animals: 6 male rats Long Evans, were obtained from Janvier Labs, Le Genest St Isle, 53941 St Berthevin, France. Acclimation Animals arrived on site at least 5 days before the experiment to allow optimal acclimation. Selection Animal health was examined on the day before starting the study, to ensure that only animals in good health were selected to enter the testing procedures. Identification: At the beginning of the study, animals were identified with a number on the tail. Each cage was labelled with a record card, indicating the test compound, the dose of administration and the identification of the animals Housing: Rats were housed in cages (1354G (Tecniplast, Lyon), dim 595*380 mm (w*d)), in a room where the air was continuously filtered, thereby avoiding any contamination. During experiments, rats were caged in groups of five (300-400 g) at a constant temperature with a day/night cycle of 12/12 hours. Animals received water (autoclaved water) and nutrition (ref A04C10), ad libitum.
4. Treatment and study design: The treatment was delivered into the ear canal and on the tympanic membrane on anesthetized rats (2.5% isoflurane). The exact volume of administration was determined during this first test and delivered (volume of 20 μL). Both ears were treated. After administration, the animal was kept on a heating pad for 5 minutes, positioned on its side to allow the compound to diffuse through the tympanic membrane. Then the second ear were administered, and the animal kept on its side for 5 minutes. Finally, the animal was kept on a ventral position until its recovery from anesthesia. The diffusion trough the tympanic membrane and into the inner ear and was assessed with the dosage of the perilymph sampling. Tympanic bulla sampling technique: After sacrifice of the rats, the right tympanic bulla was collected from each animal and transferred to an Eppendorf tube, weighed individually and frozen at −20° C. until analysis. Perilymph sampling technique: After sacrifice of the rats and extraction of the tympanic bulla from the left ear, a volume of about 1 μL of cochlear fluid at the base of the cochlea was sampled ex vivo. Tubes were weighed individually before and after sampling, and immediately transferred to a −20° C. freezer.
5. Bioanalysis: The concentration of each compound in the perilymph and in the tympanic bulla was quantified using an exploratory LC/MS-MS assay method in outsourcing laboratory (Eurofins Vergeze, France). The concentration of amitriptyline in plasma was assessed.
The same materials and methods were used as in Example 1.

Data set [3] in a line: Pharmacokinetics after single ear canal administration: concentration in plasma. Type of data set: in vivo, male Long Evans rats. The note with it: from 1 to 8 hours after administration. The procedure:
2. […] 3. […] Animals received water (autoclaved water) and nutrition (ref […]), ad libitum. 4. […] Both ears were treated. […] Perilymph sampling technique: […] […] 5. […] The concentration of amitriptyline in plasma was assessed.

Where [4] appears, read: after 8 hours from the administration onto the tympanic membrane, Example 1 conclusion.
Where [5] appears, read: after 8 hours from the administration onto the tympanic membrane, Example 3 conclusion.

`O=c1cc(-c2ccccc2)oc2c(O)c(O)ccc12` [7,8-dihydroxyflavone]: the “Presence within the inner ear (perilymph)” value in data set [1] (rat, in vivo) is recorded as “present”; in data set [2] (rat, in vivo), “present”.

For the compound `CN(C)CCC=C1c2ccccc2CCc2ccccc21` [amitriptyline], in data set [2] (rat, in vivo), the “Presence within the inner ear (perilymph)” value was “present”. The Presence in plasma result in data set [3] was “present in plasma”. For the compound `C=C(C)[C@@H]1CCC(C)=C[C@H]1c1c(O)cc(CCCCC)cc1O` [cannabidiol], the “Presence within the inner ear (perilymph)” value in data set [2] (setting [4]) was “present”. Turning to `C[C@@H]1C[C@H]2[C@@H]3CCC4=CC(=O)C=C[C@]4(C)[C@@]3(F)[C@@H](O)C[C@]2(C)[C@@]1(O)C(=O)CO` [dexamethasone], the “Presence within the inner ear (perilymph)” value in data set [1] (setting [5]) is “present”; in data set [2] (rat, in vivo) it was “present”. With `COc1ccc2c(c1)[C@]13CCCC[C@@H]1[C@H](C2)N(C)CC3` [dextromethorphan], the “Presence within the inner ear (perilymph)” value in data set [2] (setting [4]) is “present”. As for `CC1CCCCC1(c1cccs1)N1CCCCC1` (stereo not shown) [gacyclidine], the “Presence within the inner ear (perilymph)” value in data set [2] (setting [4]) was “present”. `CCN(CC)CC(=O)Nc1c(C)cccc1C` [lidocaine]: the “Presence within the inner ear (perilymph)” value in data set [1] (setting [5]) is given as “present”. In the case of `CCCN[C@H]1CCc2nc(N)sc2C1` [pramipexole], the “Presence within the inner ear (perilymph)” value in data set [2] (rat, in vivo) was “present”. Same read-out and setting: the same measure for `CCCN(CCC)CCc1cccc2c1CC(=O)N2` [ropinirole]: “present”. As to `CC(C)c1cc2[nH]c(=O)n(NS(C)(=O)=O)c(=O)c2cc1-c1ccnn1C` [selurampanel], in data set [2] (setting [4]), the “Presence within the inner ear (perilymph)” value is listed as “present”.
